Measurements reported in PubChem BioAssay (NCI).
Values joined by “and” are separate entries in the source; they are usually repeats but may differ in a detail not shown here. Equal values may be shown once.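 All cell lines were grown in 96-well plates and treated with compound for 48 hours. GI50 is the concentration that inhibits growth by half. The concentration for full growth arrest is given as TGI.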

Columns and labels:
Assay in all cases: DTP human tumour cell line panel, 48 h
[1] = test system: SNB-19 CNS
[2] = test system: IGROV1 ovarian
[3] = test system: SK-MEL-5 melanoma
[4] = test system: T-47D breast
[5] = test system: A549 NSCLC
[6] = test system: BT-549 breast
[7] = test system: NCI-H226 lung
[8] = test system: MCF7 breast
[9] = test system: SF-539 CNS
[10] = test system: PC-3 prostate

| Compound | GI50 [1] [µM] | TGI [1] | GI50 [2] [µM] | TGI [2] [µM] | GI50 [3] [µM] | TGI [3] | GI50 [4] [µM] | TGI [4] [µM] | GI50 [5] [µM] | TGI [5] | GI50 [6] [µM] | TGI [6] | GI50 [7] [µM] | TGI [7] | GI50 [8] [µM] | TGI [8] [µM] | GI50 [9] [µM] | TGI [9] [µM] | GI50 [10] [µM] | TGI [10] [µM] |
| --- | --- | --- | --- | --- | --- | --- | --- | --- | --- | --- | --- | --- | --- | --- | --- | --- | --- | --- | --- | --- |
| C=C(CN1CCN(c2cccc(C(F)(F)F)n2)CC1)c1ccc(C(=S)Nc2ccccc2N)cc1 | 4.12 | > 100 µM | 6.93 | > 100 | 1.46 | 3.17 µM | 2.26 | 8.54 | 3.32 | > 100 µM | 4.4 | > 100 µM | 4.91 | > 100 µM | 2.87 | 14.5 | 5.72 | > 100 |  |  |
| OCC1OC(n2cnc3c(Cl)nc(Cl)cc32)C(O)C1O (stereo unspecified) | > 100 | > 100 µM | > 100 | > 100 |  |  | > 100 | > 100 | > 100 | > 100 µM | > 100 | > 100 µM |  |  | > 100 | > 100 | > 100 | > 100 | > 100 | > 100 |
| CSCCOC(=O)C(=[N+]=[N-])c1ccc([N+](=O)[O-])cc1 |  | > 100 µM |  | > 100 |  |  |  |  |  | > 100 µM |  |  |  | > 100 µM |  |  |  | > 100 |  |  |
| CC1OC(OC2C(CO)OC(O[C@H]3CC[C@@]4(C)C(=CC[C@H]5[C@@H]6C[C@@H]7O[C@]8(CC[C@@H](C)CN8)[C@@H](C)[C@@H]7[C@@]6(C)CC[C@@H]54)C3)C(O)C2O)C(O)C(O)C1O (stereo partly specified) |  | > 100 µM |  | > 100 |  | > 100 µM |  |  |  | > 100 µM |  |  |  |  |  |  |  | > 100 |  |  |
| CCOc1ccccc1NC(=O)CCc1n[nH]c(=S)o1 |  | > 100 µM |  |  |  | > 100 µM |  |  |  | > 100 µM |  |  |  | > 100 µM |  |  |  | > 100 |  |  |
| CNC(=O)c1cccc2c(Nc3ccc(NS(C)(=O)=O)cc3OC)c3cccc(C)c3nc12 |  | 5.04 µM |  | 13.2 |  | 1.9 µM |  |  |  | 1.61 µM |  |  |  | 1.05 µM |  |  |  | 0.661 |  |  |
| C/C(=C(\c1ccc(OCCN2CCCCCC2)cc1)c1ccc(OC(=O)Cc2ccccc2)cc1)c1ccc(Cl)cc1 | 2.96 | 6.41 µM | 2.8 | 6.51 | 2.36 | 4.58 µM | 1.95 | 6.42 | 2.7 | 5.41 µM | 2.2 | 4.58 µM | 2.94 | 7.32 µM | 0.382 | 3.83 | 2.36 | 4.82 |  |  |
| O=C1OC(c2ccccc2)(c2cc(Br)c(O)c(Br)c2)c2ccccc21 (stereo unspecified) | 29.7 | > 100 µM | 33.6 | > 100 | 14.5 | 30.7 µM | 26.8 | > 100 | 31.3 | > 100 µM |  |  | 26.2 | 84.4 µM | 23.8 | 78.7 | 26.6 | 80.6 | 35.6 | > 100 |
| C=C(C)[C@@H]1CC[C@]2(CO)CC[C@]3(C)[C@H](CC[C@@H]4[C@@]5(C)CCC(NCCc6ccc(O)cc6)C(C)(C)[C@@H]5CC[C@]43C)[C@@H]12 (stereo partly specified) |  |  |  |  | 1.47 | 2.8 µM | 1.51 | 3.19 | 1.48 | 3 µM | 1.75 | 3.27 µM |  |  | 0.912 | 2.57 | 1.63 | 3.04 | 1.3 | 2.64 |
| CC1=C[P+](Cc2ccccc2)(c2ccccc2)CC1 (stereo unspecified) |  | > 100 µM |  | > 100 |  | > 100 µM and 56.7 µM and 84.1 µM |  |  |  | > 100 µM |  |  |  | > 100 µM |  |  |  | > 100 |  |  |
| CCOC(=O)[C@@H](C)C[C@H](Cc1ccccc1)NC(=O)c1csc([C@@H](C[C@H](C(C)C)N(C)C(=O)[C@H](CC)NC(=O)[C@H]2CCCCN2C)OC(C)=O)n1 | 0.00199 | > 16.7 µM | 0.00193 | > 16.7 | < 0.00167 | 0.0432 µM |  |  | 0.00415 | > 16.7 µM | 0.00368 | 0.143 µM | 0.00335 | 0.102 µM | < 0.00167 | > 16.7 | 0.00306 | 0.0098 | < 0.00167 | > 16.7 |
| O=C(NCC(O)CNC(=O)C(F)(F)F)C(F)(F)F |  | > 100 µM |  | > 100 |  | > 100 µM |  |  |  | > 100 µM |  |  |  | > 100 µM |  |  |  | > 100 |  |  |
| CC(C)(C)OC(=O)NC(CO)c1cccc(OCc2ccccc2)c1 (stereo unspecified) |  | > 100 µM |  | > 100 |  | > 100 µM |  |  |  | > 100 µM |  |  |  | > 100 µM |  |  |  | > 100 |  |  |
| O=C1CC(O)(c2ccccc2)C(c2ccccc2)=C1c1ccccc1 (stereo unspecified) |  |  |  | > 100 |  | 86.7 µM |  |  |  | > 100 µM |  |  |  |  |  |  |  |  |  |  |
| Cc1ccc(-c2nc(N3CCCNCC3)c3oc(-c4ccccc4)nc3n2)cc1 | 1.82 | 3.45 µM | 1.67 | 3.24 | 1.6 | 3.03 µM | 2.02 | 4 | 1.71 | 3.12 µM |  |  | 1.82 | 3.97 µM | 1.59 | 3.44 | 1.79 | 3.26 | 1.57 | 3 |
| COC(=O)c1ccc(Cl)cc1NC(=O)C1CCCCC1 |  | > 100 µM |  |  |  |  |  |  |  | > 100 µM |  |  |  | > 100 µM |  |  |  | > 100 |  |  |

| Compound | GI50 [1] [µM] | TGI [1] | GI50 [2] [µM] | TGI [2] [µM] | GI50 [3] [µM] | TGI [3] | GI50 [4] [µM] | TGI [4] [µM] | GI50 [5] [µM] | TGI [5] | GI50 [6] [µM] | TGI [6] | GI50 [7] [µM] | TGI [7] | GI50 [8] [µM] | TGI [8] [µM] | GI50 [9] [µM] | TGI [9] [µM] | GI50 [10] [µM] | TGI [10] [µM] |
| --- | --- | --- | --- | --- | --- | --- | --- | --- | --- | --- | --- | --- | --- | --- | --- | --- | --- | --- | --- | --- |
| C[n+]1ccc(-c2c3nc(c(-c4cc[n+](C)cc4)c4ccc([n-]4)c(-c4cc[n+](C)cc4)c4nc(c(-c5cc[n+](C)cc5)c5ccc2[n-]5)C=C4)C=C3)cc1.[I-].[Zn+2] | 19.4 | 45.5 µM | 25.4 | 57.8 | 15.9 | 37.4 µM |  |  | 22.3 | 49.5 µM |  |  | 14.9 | 48.3 µM |  |  | 16.2 | 39.9 |  |  |
| Fc1cccc2c1cc1ccc3cccc4ccc2c1c34 |  | > 100 µM |  | > 100 |  | > 100 µM |  |  |  | > 100 µM |  |  |  | > 100 µM |  |  |  | > 100 |  |  |
| N#C/C(=C/Sc1ccccc1)C(=O)O |  | > 100 µM |  | 37.2 |  | > 100 µM |  |  |  | > 100 µM |  |  |  | 58.7 µM |  |  |  | 35.2 |  |  |
| COc1cc2c(cc1OC)C(=O)Cc1ccc(OC)c(OC)c1CN(C)CC2 |  | > 100 µM |  | > 100 |  | > 100 µM |  |  |  | > 100 µM |  |  |  | > 100 µM |  |  |  | > 100 |  |  |
| O=C1c2ccccc2-c2c1c1c(O)cccc1n2-c1ccccc1 | > 100 | > 100 µM | > 100 | > 100 | > 100 | > 100 µM | > 100 | > 100 | > 100 | > 100 µM |  |  | > 100 | > 100 µM | > 100 | > 100 |  |  | > 100 | > 100 |
| O=C(NC1C2CC3CC(C2)CC1C3)c1cc(/C=C/c2ccccc2)[nH]c(=S)n1 (stereo unspecified) |  | > 100 µM |  | > 100 |  | > 100 µM |  |  |  | > 100 µM |  |  |  |  |  |  |  | > 100 |  |  |
| COc1ccc(OC(C(=O)O)c2ccccc2)c2c1CCCC2=O (stereo unspecified) |  | > 100 µM |  | > 100 |  | > 100 µM |  |  |  | > 100 µM |  |  |  |  |  |  |  | > 100 |  |  |
| CCc1ccc2c(c1)N(CCO)C1=C(C(=O)OC1)C2c1cccc(Cl)c1 (stereo unspecified) | 1.33 | 25.1 µM | 3.75 | 37.6 | 0.357 | 7.56 µM | 0.583 | 26.4 | 0.784 | 18.6 µM | 1.98 | 18.7 µM | 1.35 | 10.5 µM |  |  | 0.488 | 11.4 | 0.687 | 23.4 |
| OC1C2CCC1C1C3C=CC(C3)C21 (stereo unspecified) |  | > 100 µM |  | > 100 |  | > 100 µM |  |  |  | > 100 µM |  |  |  | > 100 µM |  |  |  |  |  |  |
| Cc1cc2c(c3oc(C4(C)OC4C4OC4C)cc(=O)c13)C(=O)c1c(O)c(C3CC(C)(N(C)C)C(O)C(C)O3)cc(C3CC(N(C)C)C(O)C(C)O3)c1C2=O (stereo unspecified) |  | 0.0713 µM and 0.00863 µM and 0.0158 µM |  |  |  | 0.0014 µM and 0.000447 µM | 0.000251 |  |  | 0.00351 µM and 0.0142 µM and 0.0177 µM | 0.000234 | 0.000414 µM and 0.00222 µM |  | 0.000537 µM and 0.000944 µM |  |  | 0.000117 |  |  |  |
| CCCCN(CCCC)CCCn1c(=O)c2c3ccccc3n(C)c2n2nnc(-c3ccccc3)c12 | > 100 | > 100 µM |  |  | 31.9 | > 100 µM | 54.6 | > 100 | 43.9 | > 100 µM |  |  | 57 | > 100 µM | 37.2 | > 100 | 65.3 | > 100 | 18.2 | 47.4 |
| c1ccc2c(c1)[nH]c1c2nc2ncccn21 |  | > 100 µM |  | > 100 |  | > 100 µM |  |  |  | > 100 µM |  |  |  | > 100 µM |  |  |  | > 100 |  |  |
| O=C1c2ccccc2C(=O)N1C/C=C/CO |  | > 100 µM |  | > 100 |  | > 100 µM |  |  |  | > 100 µM |  |  |  | > 100 µM |  |  |  | > 100 |  |  |
| O=c1oc(=O)c2oc3ccccc3oc1=2 |  | > 100 µM |  | > 100 |  |  |  |  |  | > 100 µM |  |  |  | > 100 µM |  |  |  | > 100 |  |  |
| O=S(O)CCCSSc1ccccc1 |  | > 100 µM |  | 41.1 |  | > 100 µM |  |  |  | > 100 µM |  |  |  |  |  |  |  | 62.9 |  |  |
| CCOC(=O)/C(C#N)=C1/C(O)=C(C(=O)OC)C(C(=O)OC)=C1C(=O)OC |  | > 100 µM |  | > 100 |  | > 100 µM |  |  |  | > 100 µM |  |  |  |  |  |  |  | > 100 |  |  |
